Test results as given in patent US11370794B2, “Toll-like receptor antagonist compounds and methods of use” (Dynavax Technologies Corporation, priority 2016, dated 2022).
Where two headings read alike, the source gives them in different places.

Columns and labels:
human TLR7 = target: T1, human TLR7 (Homo sapiens, UniProt Q9NYK1); test: Inhibition of human TLR7 in human plasmacytoid dendritic cells (interferon-alpha ELISA); assay type: cell-based; settings: agonist heat inactivated influenza virus, 24 hours
T1 construct: Human plasmacytoid dendritic cells were plated into 96 well plates; endogenous in cells; host or cells: primary human plasmacytoid dendritic cells from buffy coats of healthy donors
T1 sequence (Q9NYK1 27-1049): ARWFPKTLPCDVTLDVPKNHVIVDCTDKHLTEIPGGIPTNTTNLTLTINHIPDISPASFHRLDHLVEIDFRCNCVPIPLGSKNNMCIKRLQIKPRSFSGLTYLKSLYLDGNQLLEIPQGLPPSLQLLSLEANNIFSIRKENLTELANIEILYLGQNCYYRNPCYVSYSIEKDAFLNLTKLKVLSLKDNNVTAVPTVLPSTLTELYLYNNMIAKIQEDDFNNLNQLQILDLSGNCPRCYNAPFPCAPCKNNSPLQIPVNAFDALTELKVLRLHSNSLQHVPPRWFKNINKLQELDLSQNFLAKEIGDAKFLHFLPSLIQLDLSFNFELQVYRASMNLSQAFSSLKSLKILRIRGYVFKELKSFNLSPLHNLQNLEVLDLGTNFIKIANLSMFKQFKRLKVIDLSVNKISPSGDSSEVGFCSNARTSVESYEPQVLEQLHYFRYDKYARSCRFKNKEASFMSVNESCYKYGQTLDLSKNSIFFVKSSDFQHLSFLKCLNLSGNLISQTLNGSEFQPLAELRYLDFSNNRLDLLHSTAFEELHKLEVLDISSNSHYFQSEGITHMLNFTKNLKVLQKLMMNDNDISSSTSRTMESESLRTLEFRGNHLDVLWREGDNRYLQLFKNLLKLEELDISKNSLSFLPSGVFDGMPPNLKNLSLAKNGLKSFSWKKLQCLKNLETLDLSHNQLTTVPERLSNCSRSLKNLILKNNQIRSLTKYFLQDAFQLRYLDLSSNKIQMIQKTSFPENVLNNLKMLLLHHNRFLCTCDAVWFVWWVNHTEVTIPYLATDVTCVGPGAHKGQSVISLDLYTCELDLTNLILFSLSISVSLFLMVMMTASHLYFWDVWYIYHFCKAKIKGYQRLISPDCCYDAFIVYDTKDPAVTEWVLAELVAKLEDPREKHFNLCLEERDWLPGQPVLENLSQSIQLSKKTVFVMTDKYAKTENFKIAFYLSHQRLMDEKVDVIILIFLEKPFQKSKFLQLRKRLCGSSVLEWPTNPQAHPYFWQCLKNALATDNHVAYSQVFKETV

human TLR8 = target: T2, human TLR8 (Homo sapiens, UniProt Q9NR97); test: Inhibition of human TLR8 in human monocytes (TNF-alpha / IL-1 beta ELISA); assay type: cell-based; settings: for IC50: human monocytes, agonist ORN8L 100 μg/mL, 24 hours; for inhibits TLR8-dependent responses (in words): summary statement of the description
T2 construct: endogenous in cells; host or cells: primary human monocytes (CD14 microbeads) from buffy coats of healthy donors
T2 sequence (Q9NR97 27-1041): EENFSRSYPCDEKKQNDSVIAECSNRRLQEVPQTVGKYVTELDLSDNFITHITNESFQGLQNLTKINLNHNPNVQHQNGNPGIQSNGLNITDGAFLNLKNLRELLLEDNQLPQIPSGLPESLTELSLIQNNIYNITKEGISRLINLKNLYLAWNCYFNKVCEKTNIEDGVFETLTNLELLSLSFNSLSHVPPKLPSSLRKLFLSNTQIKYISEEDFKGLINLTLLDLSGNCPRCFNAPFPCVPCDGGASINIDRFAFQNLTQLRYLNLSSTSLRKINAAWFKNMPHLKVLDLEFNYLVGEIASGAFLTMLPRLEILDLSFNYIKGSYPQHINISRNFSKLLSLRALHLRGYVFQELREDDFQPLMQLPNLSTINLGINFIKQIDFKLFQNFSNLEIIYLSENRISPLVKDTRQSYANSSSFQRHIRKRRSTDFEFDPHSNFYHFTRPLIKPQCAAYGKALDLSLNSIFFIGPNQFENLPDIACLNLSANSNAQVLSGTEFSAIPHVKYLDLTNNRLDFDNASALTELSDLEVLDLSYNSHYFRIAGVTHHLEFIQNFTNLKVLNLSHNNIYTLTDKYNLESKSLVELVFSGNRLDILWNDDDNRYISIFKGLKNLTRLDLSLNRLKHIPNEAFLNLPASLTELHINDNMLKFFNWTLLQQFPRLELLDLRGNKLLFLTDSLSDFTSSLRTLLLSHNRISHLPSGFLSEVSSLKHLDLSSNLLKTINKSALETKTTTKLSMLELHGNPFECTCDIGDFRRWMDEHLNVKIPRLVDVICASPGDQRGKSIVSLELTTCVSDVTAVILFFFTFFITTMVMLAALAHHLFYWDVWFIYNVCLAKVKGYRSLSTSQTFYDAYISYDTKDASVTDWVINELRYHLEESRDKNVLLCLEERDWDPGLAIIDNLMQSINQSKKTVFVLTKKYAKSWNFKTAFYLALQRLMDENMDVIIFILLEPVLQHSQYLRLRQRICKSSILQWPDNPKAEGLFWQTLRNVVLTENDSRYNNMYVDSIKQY
Summary of the method: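 Primary human monocytes from donor buffy coats (~200,000 cells/well) given serially diluted compound, then ORN8L RNA oligonucleotide agonist at 100 μg/mL final. After 24 h at 37 °C, supernatant TNF-alpha and/or IL-1 beta measured by ELISA; IC50 from the concentration-response of cytokine release.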

[1] = IL-1 beta readout, read-out: Human TLR8 IC50 IL-1b
[2] = TNF-alpha readout, read-out: Human TLR8 IC50 TNF-a

| Compound | IC50 (human TLR7) [µM] | IC50 (human TLR8; [1]) [µM] | IC50 (human TLR8; [2]) [µM] | inhibits TLR8-dependent responses (in words) (human TLR8) |
| --- | --- | --- | --- | --- |
| Cc1ccc(-n2nc3c(N4CCC(CCC(=O)NCCN(C)C)CC4)nnc(C)c3c2C)cc1 [Compound No. 9, 3-(1-(3,4-dimethyl-2-(p-tolyl)-2H-pyrazolo[3,4-d]pyridazin-7-yl)piperidin-4-yl)-N-(2-(dimethylamino)ethyl)propanamide] | > 10 | 5.02 | 1.22 |  |
| Cc1ccc(-n2nc3c(N4CCC(C(=O)NC5CN(C)C5)CC4)nnc(C)c3c2C)cc1 [Compound No. 3, 1-(3,4-dimethyl-2-(p-tolyl)-2H-pyrazolo[3,4-d]pyridazin-7-yl)-N-(1-methylazetidin-3-yl)piperidine-4-carboxamide] |  | > 10 | > 10 |  |
| Cc1ccc(-n2nc3c(N4CCC(C(=O)NCCCc5c[nH]cn5)CC4)nnc(C)c3c2C)cc1 [Compound No. 6, N-(3-(1H-imidazol-4-yl)propyl)-1-(3,4-dimethyl-2-(p-tolyl)-2H-pyrazolo[3,4-d]pyridazin-7-yl)piperidine-4-carboxamide] | > 10 | > 10 | 6.68 |  |
| Cc1ccc(-n2nc3c(N4CCC(C(=O)NCCCN(C)Cc5ccccc5)CC4)nnc(C)c3c2C)cc1 [Compound No. 1, N-(3-(benzyl(methyl)amino)propyl)-1-(3,4-dimethyl-2-(p-tolyl)-2H-pyrazolo[3,4-d]pyridazin-7-yl)piperidine-4-carboxamide] | 2.97 | 0.74 | 0.62 | inhibit |
| Cc1ccc(-n2nc3c(N4CCC(C(=O)NCC(C)(C)CNc5ccccc5)CC4)nnc(C)c3c2C)cc1 [2-1] | > 10 | 9.92 | 9.77 |  |
| Cc1ccc(-n2nc3c(N4CCC(C(=O)N5CCN(Cc6ccccc6)CC5)CC4)nnc(C)c3c2C)cc1 [Compound No. 2, (4-benzylpiperazin-1-yl)(1-(3,4-dimethyl-2-(p-tolyl)-2H-pyrazolo[3,4-d]pyridazin-7-yl)piperidin-4-yl)methanone] | 9.93 | 0.9 | 0.67 | inhibit |
| Cc1ccc(-n2nc3c(N4CCC(C(=O)NCCCN(C)C)CC4)nnc(C)c3c2C)cc1 [Compound No. 5, 1-(3,4-dimethyl-2-(p-tolyl)-2H-pyrazolo[3,4-d]pyridazin-7-yl)-N-(3-(dimethylamino)propyl)piperidine-4-carboxamide] | 2.23 | > 10 | > 10 |  |
| Cc1ccc(-n2nc3c(N4CCC(C(=O)NC5CN(Cc6ccccc6)C5)CC4)nnc(C)c3c2C)cc1 [Compound No. 4, N-(1-benzylazetidin-3-yl)-1-(3,4-dimethyl-2-(p-tolyl)-2H-pyrazolo[3,4-d]pyridazin-7-yl)piperidine-4-carboxamide] | 3.36 | 1.01 | 0.77 | inhibit |
